Measurements published in patent US10092584B2 (Achillion Pharmaceuticals, Inc., priority 2015, dated 2018).
pIC50: −log10 of the molar value. Read-outs that look alike come from different tables or passages of the source.

Target: T1, Human Factor D (Homo sapiens, UniProt P00746)
T1 construct: purified from human serum; purchased Complement Technology, Inc; host or cells: human serum
Test: Human Factor D assay (Example 8)
Format: biochemical
Protocol: Human Factor D (purified from human serum, Complement Technology, Inc.) at 80 nM final concentration was incubated with test compound at various concentrations for 5 minutes at room temperature in 50 mM Tris, 1M NaCl, pH 7.5. A synthetic substrate Z-L-Lys-SBzl and DTNB (Ellman's reagent) are added to final concentrations of 100 μM each. […] IC50 values are calculated by nonlinear regression of complement Factor D reaction rates as a function of test compound concentration.

[1] = Table 1, Human Factor D 80 nM, substrate Z-L-Lys-SBzl, read-out: IC50

T1 sequence (P00746 26-253): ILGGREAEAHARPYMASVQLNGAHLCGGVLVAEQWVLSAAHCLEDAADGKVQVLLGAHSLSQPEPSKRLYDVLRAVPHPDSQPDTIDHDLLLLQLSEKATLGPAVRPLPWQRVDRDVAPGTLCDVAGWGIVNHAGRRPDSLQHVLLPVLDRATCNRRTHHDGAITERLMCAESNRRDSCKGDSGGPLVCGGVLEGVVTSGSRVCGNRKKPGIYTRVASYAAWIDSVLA

SMILES | pIC50 [1] | pIC50
NC(=O)c1nn(CC(=O)N2[C@@H]3C[C@@H]3C[C@H]2C(=O)Nc2cccc(-c3ccccc3Cl)c2F)cc1Br [Compound 77, (1R,3S,5R)-2-(2-(4-Bromo-3-carbamoyl-1H-pyrazol-1-yl)acetyl)-N-(2′-chloro-2-fluoro-[1,1′-biphenyl]-3-yl)-2-azabicyclo[3.1.0]hexane-3-carboxamide] | > 6.00 | –
CC(=O)c1cn(CC(=O)N2C[C@H](F)C[C@H]2C(=O)Nc2cccc(-c3ccccc3Cl)c2F)c2c(C#N)cccc12 [Compound 79, (2S,4R)-1-(2-(3-acetyl-7-cyano-1H-indol-1-yl)acetyl)-N-(2′-chloro-2-fluorobiphenyl-3-yl)-4-fluoropyrrolidine-2-carboxamide] | – | > 6.00
NC(=O)c1nn(CC(=O)N2C[C@H](F)C[C@H]2C(=O)Nc2cccc(-c3cc(F)c(F)cc3Cl)c2F)c2ccccc12 [Compound 80, 1-(2-((2S,4R)-2-((2′-Chloro-2,4′,5′-trifluoro-[1,1′-biphenyl]-3-yl)carbamoyl)-4-fluoropyrrolidin-1-yl)-2-oxoethyl)-1H-indazole-3-carboxamide] | – | > 6.00
CC(=O)c1cn(CC(=O)N2C[C@H](F)C[C@H]2C(=O)Nc2cccc(Br)n2)c2ccc(C3(N4C(=O)c5ccccc5C4=O)CC3)cc12 [Compound 81, (2S,4R)-1-(2-(3-acetyl-5-(1-(1,3-dioxoisoindolin-2-yl)cyclopropyl)-1H-indol-1-yl)acetyl)-N-(6-bromopyridin-2-yl)-4-fluoropyrrolidine-2-carboxamide] | – | > 6.00
CC(=O)c1cn(CC(=O)N2C[C@H](F)C[C@H]2C(=O)Nc2cccc(-c3cc(F)c(F)cc3Cl)c2F)c2ccccc12 [Compound 82, (2S,4R)-1-(2-(3-acetyl-1H-indol-1-yl)acetyl)-N-(2′-chloro-2,4′,5′-trifluorobiphenyl-3-yl)-4-fluoropyrrolidine-2-carboxamide] | – | > 6.00
NC(=O)c1nn(CC(=O)N2C[C@H](F)C[C@H]2C(=O)Nc2cccc(-c3cc(F)c(F)cc3Cl)c2F)c2cnccc12 [Compound 83, 1-(2-((2S,4R)-2-(2′-chloro-2,4′,5′-trifluorobiphenyl-3-ylcarbamoyl)-4-fluoropyrrolidin-1-yl)-2-oxoethyl)-1H-pyrazolo[3,4-c]pyridine-3-carboxamide] | > 6.00 | –
NC(=O)c1nn(CC(=O)N2C[C@H](F)C[C@H]2C(=O)Nc2cccc(-c3ccc(F)c(F)c3Cl)c2F)c2ccccc12 [Compound 92, 1-(2-((2S,4R)-2-(2′-chloro-2,3′,4′-trifluorobiphenyl-3-ylcarbamoyl)-4-fluoropyrrolidin-1-yl)-2-oxoethyl)-1H-indazole-3-carboxamide] | – | > 6.00
CC(=O)c1cn(CC(=O)N2C[C@H](F)C[C@H]2C(=O)Nc2cccc(-c3ccc(F)c(F)c3Cl)c2F)c2ccccc12 [Compound 93, (2S,4R)-1-(2-(3-acetyl-1H-indol-1-yl)acetyl)-N-(2′-chloro-2,3′,4′-trifluorobiphenyl-3-yl)-4-fluoropyrrolidine-2-carboxamide] | – | > 6.00
NC(=O)c1nn(CC(=O)N2C[C@H](F)C[C@H]2C(=O)Nc2cccc(-c3cc(F)cc(F)c3Cl)c2F)c2ccccc12 [Compound 94, 1-(2-((2S,4R)-2-(2′-chloro-2,3′,5′-trifluorobiphenyl-3-ylcarbamoyl)-4-fluoropyrrolidin-1-yl)-2-oxoethyl)-1H-indazole-3-carboxamide] | – | > 6.00
CC(=O)c1cn(CC(=O)N2C[C@H](F)C[C@H]2C(=O)Nc2cccc(-c3cc(F)cc(F)c3Cl)c2F)c2ccccc12 [Compound 95, (2S,4R)-1-(2-(3-acetyl-1H-indol-1-yl)acetyl)-N-(2′-chloro-2,3′,5′-trifluorobiphenyl-3-yl)-4-fluoropyrrolidine-2-carboxamide] | – | > 6.00
CC(=O)c1cn(CC(=O)N2C[C@H](F)C[C@H]2C(=O)Nc2cccc(-c3ccccc3Cl)c2F)c2cccc(C#N)c12 [Compound 97, (2S,4R)-1-(2-(3-acetyl-4-cyano-1H-indol-1-yl)acetyl)-N-(2′-chloro-2-fluorobiphenyl-3-yl)-4-fluoropyrrolidine-2-carboxamide] | – | > 6.00
N#Cc1cccc2c(C(N)=O)nn(CC(=O)N3C[C@H](F)C[C@H]3C(=O)Nc3cccc(-c4ccccc4Cl)c3F)c12 [Compound 111, 1-(2-((2S,4R)-2-((2′-Chloro-2-fluoro-[1,1′-biphenyl]-3-yl)carbamoyl)-4-fluoropyrrolidin-1-yl)-2-oxoethyl)-7-cyano-1H-indazole-3-carboxamide] | – | > 6.00
CC(=O)c1cn(CC(=O)N2C[C@H](F)C[C@H]2C(=O)Nc2cccc(-c3ccccc3Cl)c2F)c2c(-c3ccc(Cl)nc3)cccc12 [Compound 112, (2S,4R)-1-(2-(3-acetyl-7-(6-chloropyridin-3-yl)-1H-indol-1-yl)acetyl)-N-(2′-chloro-2-fluorobiphenyl-3-yl)-4-fluoropyrrolidine-2-carboxamide] | – | > 6.00

The next lines start with results.

pIC50 [1] | SMILES | pIC50
> 6.00 | CC(=O)n1cc(CC(=O)N2C[C@H](F)C[C@H]2C(=O)Nc2cccc(-c3ccccc3Cl)c2F)c2ccsc21 [Compound 90, (2S,4R)-1-(2-(6-acetyl-6H-thieno[2,3-b]pyrrol-4-yl)acetyl)-N-(2′-chloro-2-fluorobiphenyl-3-yl)-4-fluoropyrrolidine-2-carboxamide] | –
< 5.00 | CC(=O)Nc1cccc2c1c(C(C)=O)cn2CC(=O)N1C[C@H](F)C[C@H]1C(=O)Nc1cccc(-c2ccccc2Cl)c1F [Compound 91, (2S,4R)-1-(2-(4-acetamido-3-acetyl-1H-indol-1-yl)acetyl)-N-(2′-chloro-2-fluorobiphenyl-3-yl)-4-fluoropyrrolidine-2-carboxamide] | –
> 6.00 | NC(=O)c1cn(CC(=O)N2C[C@H](F)C[C@H]2C(=O)Nc2cccc(-c3ccccc3Cl)c2F)c2sccc12 [Compound 98, 6-(2-((2S,4R)-2-(2′-chloro-2-fluorobiphenyl-3-ylcarbamoyl)-4-fluoropyrrolidin-1-yl)-2-oxoethyl)-6H-thieno[2,3-b]pyrrole-4-carboxamide] | –
> 6.00 | NC(=O)c1nn(CC(=O)N2C[C@H](F)C[C@H]2C(=O)Nc2cccc(-c3ccccc3Cl)c2F)c2ccsc12 [Compound 99, 1-(2-((2S,4R)-2-((2′-Chloro-2-fluoro-[1,1′-biphenyl]-3-yl)carbamoyl)-4-fluoropyrrolidin-1-yl)-2-oxoethyl)-1H-thieno[3,2-c]pyrazole-3-carboxamide] | –
> 6.00 | NC(=O)c1nn(CC(=O)N2C[C@H](F)C[C@H]2C(=O)Nc2cccc(-c3c(F)cc(F)cc3Cl)n2)c2cnccc12 [Compound 100, 1-(2-((2S,4R)-2-(6-(2-chloro-4,6-difluorophenyl)pyridin-2-ylcarbamoyl)-4-fluoropyrrolidin-1-yl)-2-oxoethyl)-1H-pyrazolo[3,4-c]pyridine-3-carboxamide] | –
> 6.00 | NC(=O)c1nn(CC(=O)N2C[C@H](F)C[C@H]2C(=O)Nc2cccc(-c3c(F)cc(F)cc3Cl)c2)c2cnccc12 [Compound 101, 1-(2-((2S,4R)-2-(2′-chloro-4′,6′-difluorobiphenyl-3-ylcarbamoyl)-4-fluoropyrrolidin-1-yl)-2-oxoethyl)-1H-pyrazolo[3,4-c]pyridine-3-carboxamide] | –
> 6.00 | NC(=O)c1cn(CC(=O)N2C[C@H](F)C[C@H]2C(=O)Nc2cccc(-c3ccccc3Cl)c2F)c2ccsc12 [Compound 103, 4-(2-((2S,4R)-2-(2′-chloro-2-fluorobiphenyl-3-ylcarbamoyl)-4-fluoropyrrolidin-1-yl)-2-oxoethyl)-4H-thieno[3,2-b]pyrrole-6-carboxamide] | –
> 6.00 | NC(=O)c1nn(CC(=O)N2C[C@H](F)C[C@H]2C(=O)Nc2cccc(-c3ccccc3Cl)c2F)c2c1CCCC2 [Compound 104, 1-(2-((2S,4R)-2-((2′-chloro-2-fluoro-[1,1′-biphenyl]-3-yl)carbamoyl)-4-fluoropyrrolidin-1-yl)-2-oxoethyl)-4,5,6,7-tetrahydro-1H-indazole-3-carboxamide] | –
> 6.00 | NC(=O)c1nn(CC(=O)N2C[C@H](F)C[C@H]2C(=O)Nc2cccc(Br)n2)c2ccsc12 [Compound 106, 1-(2-((2S,4R)-2-((6-Bromopyridin-2-yl)carbamoyl)-4-fluoropyrrolidin-1-yl)-2-oxoethyl)-1H-thieno[3,2-c]pyrazole-3-carboxamide] | –
> 6.00 | NC(=O)c1nn(CC(=O)N2[C@@H]3C[C@@H]3C[C@H]2C(=O)NCc2cccc(Cl)c2F)c2ccsc12 [Compound 107, 1-(2-((1R,3S,5R)-3-(3-chloro-2-fluorobenzylcarbamoyl)-2-azabicyclo[3.1.0]hexan-2-yl)-2-oxoethyl)-1H-thieno[3,2-c]pyrazole-3-carboxamide] | –
< 5.00 | COc1ncc(-c2cn(CC(=O)N3C[C@H](F)C[C@H]3C(=O)Nc3cccc(-c4ccccc4Cl)c3F)nc2C(N)=O)cn1 [Compound 110, 1-(2-((2S,4R)-2-((2′-Chloro-2-fluoro-[1,1′-biphenyl]-3-yl)carbamoyl)-4-fluoropyrrolidin-1-yl)-2-oxoethyl)-4-(2-methoxypyrimidin-5-yl)-1H-pyrazole-3-carboxamide] | –
> 6.00 | Cc1cc2c(s1)c(C(N)=O)nn2CC(=O)N1C[C@H](F)C[C@H]1C(=O)Nc1cccc(-c2ccccc2Cl)c1F [Compound 113, 1-(2-((2S,4R)-2-((2′-Chloro-2-fluoro-[1,1′-biphenyl]-3-yl)carbamoyl)-4-fluoropyrrolidin-1-yl)-2-oxoethyl)-5-methyl-1H-thieno[3,2-c]pyrazole-3-carboxamide] | –
> 6.00 | CC(=O)c1cn(CC(=O)N2C[C@H](F)C[C@H]2C(=O)Nc2cccc(-c3ccccc3Cl)c2F)c2c(-c3cn[nH]c3)cccc12 [Compound 114, (2S,4R)-1-(2-(3-acetyl-7-(1H-pyrazol-4-yl)-1H-indol-1-yl)acetyl)-N-(2′-chloro-2-fluorobiphenyl-3-yl)-4-fluoropyrrolidine-2-carboxamide] | –
